Experimental findings from patent US10035790B2, “RORγ modulators” (BRISTOL-MYERS SQUIBB COMPANY, priority 2012, dated 2018) are described below.

Structures are written as SMILES.

The assay addresses T1, ligand binding domain of human RORγ (A262-S507) (Homo sapiens, UniProt P51449).
T1 construct: made in house; host or cells: E. coli
T1 sequence (P51449 262-507): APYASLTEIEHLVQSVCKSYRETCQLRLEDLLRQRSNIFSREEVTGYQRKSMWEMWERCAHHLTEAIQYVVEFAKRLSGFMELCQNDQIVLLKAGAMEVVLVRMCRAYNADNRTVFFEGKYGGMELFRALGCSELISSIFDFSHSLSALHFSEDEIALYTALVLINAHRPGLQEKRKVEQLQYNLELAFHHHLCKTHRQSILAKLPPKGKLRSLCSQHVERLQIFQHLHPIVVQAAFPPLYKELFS
The assay can be described thus: General RORγ SPA binding assay (competition with [3H]25-hydroxycholesterol). The following applies: RORγ SPA binding assay, inhibition of [3H]25-hydroxycholesterol binding; read-out: IC50. Summed up:
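Step one: compound meets 50 nM nickel-purified, His-tagged protein from E. coli for 15 min at room temperature (PBS, 0.5% fatty acid free BSA). Step two: radioligand is added for another 15 min. Step three: SPA beads are added for 30 min before scintillation reading and IC50 fitting.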
In the case of `Cc1ncc(/C(=N/Oc2ccnc(C(F)(F)F)c2)C(F)F)c(C2CCN(C(=O)Cc3c(F)cccc3F)CC2)n1` [Compound B32, (1Z)-1-(4-{1-[(2,6-Difluorophenyl)acetyl]piperidin-4-yl}-2-methylpyrimidin-5-yl)-2,2-difluoroethanone O-[2-(trifluoromethyl)pyridin-4-yl]oxime], the IC50 was determined as 15.3 nM. Next, `Cc1ncc(/C=N/Oc2cccc(C(F)(F)F)c2)c(C2CCN(C(=O)Cc3c(F)cccc3F)CC2(F)F)n1` (stereo not shown) [Compound B33, (E)-4-(1-(2-(2,6-Difluorophenyl)acetyl)-3,3-difluoropiperidin-4-yl)-2-methylpyrimidine-5-carbaldehyde O-3-(trifluoromethyl)phenyl oxime]: 36.7 nM. Next, `C/C(=N\Oc1ccnc(C(F)(F)F)c1)c1cnc(C)nc1C1CCN(C(=O)Cc2c(F)cccc2F)CC1(F)F` (stereo not shown) [Compound B34, (E)-1-(3,3-Difluoro-4-(2-methyl-5-(1-(2-(trifluoromethyl)pyridin-4-yloxyimino)ethyl)pyrimidin-4-yl)piperidin-1-yl)-2-(2,6-difluorophenyl)ethanone]: 12.5 nM; `Cc1ncc(/C(CF)=N/Oc2ccnc(C(F)(F)F)n2)c(C2CCN(C(=O)Cc3c(F)cccc3F)CC2(F)F)n1` (stereo not shown) [Compound B35, (Z)-1-(3,3-Difluoro-4-(5-(2-fluoro-1-(2-(trifluoromethyl)pyrimidin-4-yloxyimino)ethyl)-2-methylpyrimidin-4-yl)piperidin-1-yl)-2-(2,6-difluorophenyl)ethanone]: 14.2 nM. Under `C/C(=N\Oc1ccnc(C(F)(F)F)n1)c1cnc(C)nc1C1CCN(C(=O)Nc2c(F)cccc2F)CC1` [Compound B36, N-(2,6-Difluorophenyl)-4-{2-methyl-5-[(1E)-N-{[2-(trifluoromethyl)pyrimidin-4-yl]oxy}ethanimidoyl]pyrimidin-4-yl}piperidine-1-carboxamide] stands 158 nM; under `C/C(=N\Oc1ccnc(C(F)(F)F)c1)c1cnc(C)nc1C1CCN(C(=O)Nc2c(F)cccc2F)CC1` [Compound B37, N-(2,6-Difluorophenyl)-4-{2-methyl-5-[(1E)-N-{[2-(trifluoromethyl)pyridin-4-yl]oxy}ethanimidoyl]pyrimidin-4-yl}piperidine-1-carboxamide], 67.6 nM. On to `C/C(=N\Oc1cccc(C(F)(F)F)n1)c1cnc(C)nc1C1CCN(C(=O)Nc2c(F)cccc2F)CC1` [Compound B38, N-(2,6-Difluorophenyl)-4-{2-methyl-5-[(1E)-N-{[6-(trifluoromethyl)pyridin-2-yl]oxy}ethanimidoyl]pyrimidin-4-yl}piperidine-1-carboxamide], for which the IC50 came out at 169 nM. Under `C/C(=N\Oc1ccnc(C(F)(F)F)n1)c1cnc(C)nc1C1CCN(C(=O)Nc2c(F)cccc2C(F)(F)F)CC1` [Compound B39, N-[2-Fluoro-6-(trifluoromethyl)phenyl]-4-{2-methyl-5-[(1E)-N-{[2-(trifluoromethyl)pyrimidin-4-yl]oxy}ethanimidoyl]pyrimidin-4-yl}piperidine-1-carboxamide] stands 93.3 nM; under `C/C(=N\Oc1cc(Cl)nc(C(F)(F)F)c1)c1cnc(C)nc1C1CCN(C(=O)Nc2c(F)cccc2F)CC1` [Compound B40, 4-{5-[(1E)-N-{[2-chloro-6-(trifluoromethyl)pyridin-4-yl]oxy}ethanimidoyl]-2-methylpyrimidin-4-yl}-N-(2,6-difluorophenyl)piperidine-1-carboxamide], 21.4 nM; under `C/C(=N/Oc1cc(Cl)nc(C(F)(F)F)c1)c1cnc(C)nc1C1CCN(C(=O)Nc2c(F)cccc2F)CC1` [Compound B41, 4-{5-[(1Z)—N-{[2-chloro-6-(trifluoromethyl)pyridin-4-yl]oxy}ethanimidoyl]-2-methylpyrimidin-4-yl}-N-(2,6-difluorophenyl)piperidine-1-carboxamide], 12.6 nM. Under `C/C(=N\Oc1cc(C)nc(C(F)(F)F)n1)c1cnc(C)nc1C1CCN(C(=O)Nc2c(F)cccc2F)CC1` [Compound B42, N-(2,6-difluorophenyl)-4-{2-methyl-5-[(1E)-N-{[6-methyl-2-(trifluoromethyl)pyrimidin-4-yl]oxy}ethanimidoyl]pyrimidin-4-yl}piperidine-1-carboxamide] stands 151 nM; under `C/C(=N\Oc1cccc(C(F)(F)F)c1)c1cnc(C)nc1C1CCN(C(=O)Nc2c(F)cccc2F)CC1` [Compound B43, N-(2,6-Difluorophenyl)-4-{2-methyl-5-[(1E)-N-{[3-(trifluoromethyl)phenyl]oxy}ethanimidoyl]pyrimidin-4-yl}piperidine-1-carboxamide], 13.5 nM. Next, `C/C(=N/Oc1cccc(C(F)(F)F)c1)c1cnc(C)nc1C1CCN(C(=O)Nc2c(F)cccc2F)CC1` [Compound B44, N-(2,6-Difluorophenyl)-4-{2-methyl-5-[(1Z)—N-{[3-(trifluoromethyl)phenyl]oxy}ethanimidoyl]pyrimidin-4-yl}piperidine-1-carboxamide]: 84.9 nM; `C/C(=N\Oc1cccc(C(F)(F)F)c1)c1cnc(C)nc1C1CCN(C(=O)Nc2c(F)cccc2C(F)(F)F)CC1` [Compound B45, N-[2-fluoro-6-(trifluoromethyl)phenyl]-4-{2-methyl-5-[(1E)-N-{[3-(trifluoromethyl)phenyl]oxy}ethanimidoyl]pyrimidin-4-yl}piperidine-1-carboxamide]: 8 nM; `Cc1nc(C)c(/C=N/Oc2cccc(C(F)(F)F)c2)c(C2CCN(C(=O)Nc3c(F)cccc3F)CC2)n1` [Compound B46, N-(2,6-Difluorophenyl)-4-{2,6-dimethyl-5-[(E)-({[3-(trifluoromethyl)phenyl]oxy}imino)methyl]pyrimidin-4-yl}piperidine-1-carboxamide]: 106 nM. `C/C(=N\Oc1cccc(C(F)(F)F)c1)c1cnc(C)nc1C1CCN(C(=O)Nc2c(F)cccc2F)C(C)C1` (stereo not shown) [Compound B47, N-(2,6-Difluorophenyl)-2-methyl-4-{2-methyl-5-[(1E)-N-{[3-(trifluoromethyl)phenyl]oxy}ethanimidoyl]pyrimidin-4-yl}piperidine-1-carboxamide]: the IC50 was determined as 76.4 nM. `CCC/C(=N\Oc1cccc(C(F)(F)F)c1)c1c(C)nc(C)nc1C1CCN(C(=O)Cc2c(F)cccc2F)CC1` [Compound B48, (1E)-1-(4-{1-[(2,6-difluorophenyl)acetyl]piperidin-4-yl}-2,6-dimethylpyrimidin-5-yl)butan-1-one O-[3-(trifluoromethyl)phenyl]oxime]: the IC50 was 241 nM.

As for `CCC/C(=N/Oc1cccc(C(F)(F)F)c1)c1c(C)nc(C)nc1C1CCN(C(=O)Cc2c(F)cccc2F)CC1` [Compound B49, (1Z)-1-(4-{1-[(2,6-difluorophenyl)acetyl]piperidin-4-yl}-2,6-dimethylpyrimidin-5-yl)butan-1-one O-[3-(trifluoromethyl)phenyl]oxime], the IC50 worked out at 1970 nM. Next, `CSc1ncc(/C(C)=N/Oc2cccc(C(F)(F)F)c2)c(C2CCN(C(=O)Nc3c(F)cccc3F)CC2)n1` [Compound B50, N-(2,6-Difluorophenyl)-4-{2-(methylthio)-5-[(1E)-N-{[3-(trifluoromethyl)phenyl]oxy}ethanimidoyl]pyrimidin-4-yl}piperidine-1-carboxamide]: 445 nM; `C/C(=N\Oc1cccc(C(F)(F)F)c1)c1cnc(N)nc1C1CCN(C(=O)Nc2c(F)cccc2F)CC1` [Compound B51, 4-{2-Amino-5-[(1E)-N-{[3-(trifluoromethyl)phenyl]oxy}ethanimidoyl]pyrimidin-4-yl}-N-(2,6-difluorophenyl)piperidine-1-carboxamide]: 8.6 nM.

For `C/C(=N\Oc1ccnc(C(F)(F)F)c1)c1cnc(N)nc1C1CCN(C(=O)Nc2c(F)cccc2F)CC1` [Compound B53, 4-{2-amino-5-[(1E)-N-{[2-(trifluoromethyl)pyridin-4-yl]oxy}ethanimidoyl]pyrimidin-4-yl}-N-(2,6-difluorophenyl)piperidine-1-carboxamide], the IC50 was found to be 35.1 nM. Next, `C/C(=N\Oc1ccnc(C(F)(F)F)n1)c1cnc(N)nc1C1CCN(C(=O)Nc2c(F)cccc2F)CC1` [Compound B54, 4-{2-Amino-5-[(1E)-N-{[2-(trifluoromethyl)pyrimidin-4-yl]oxy}ethanimidoyl]pyrimidin-4-yl}-N-(2,6-difluorophenyl)piperidine-1-carboxamide]: 168 nM; `C/C(=N\Oc1cc(Cl)nc(C(F)(F)F)c1)c1cnc(N)nc1C1CCN(C(=O)Nc2c(F)cccc2F)CC1` [Compound B55, 4-{2-Amino-5-[(1E)-N-{[2-chloro-6-(trifluoromethyl)pyridin-4-yl]oxy}ethanimidoyl]pyrimidin-4-yl}-N-(2,6-difluorophenyl)piperidine-1-carboxamide]: 5.8 nM; `C/C(=N\Oc1cc(F)nc(F)c1)c1cnc(N)nc1C1CCN(C(=O)Nc2c(F)cccc2F)CC1` [Compound B56, 4-(2-Amino-5-{(1E)-N-[(2,6-difluoropyridin-4-yl)oxy]ethanimidoyl}pyrimidin-4-yl)-N-(2,6-difluorophenyl)piperidine-1-carboxamide]: 31.8 nM. Next, `C/C(=N/Oc1cc(F)nc(F)c1)c1cnc(N)nc1C1CCN(C(=O)Nc2c(F)cccc2F)CC1` [Compound B57, 4-(2-Amino-5-{(1Z)—N-[(2,6-difluoropyridin-4-yl)oxy]ethanimidoyl}pyrimidin-4-yl)-N-(2,6-difluorophenyl)piperidine-1-carboxamide]: 92.7 nM.
